Experimental data as given in patent US20230157286A1, “METHODS FOR INCREASING SECONDARY METABOLITE PRODUCTION IN CANNABIS” (priority 2021, published 2023).

What was measured:
[1] = system: cannabis clones of the gelato varietal; conditions: in vivo
[2] = system: cannabis clones of the gelato varietal; assay: Aroma compound analysis of cannabis flower by GCxGC-FID/TOF-MS; assay type: in vivo; conditions: compared with control and G1
Experimental: The major volatile aroma compounds of the flowers from the Cannabis plants were extracted using methanol as a solvent. 200 mg of flower was placed into a scintillation vial followed by mechanical grinding with a plastic disposable spatula. 2 mL of methanol was added to the flower and agitated for 15 minutes, followed by transferring 4 μL of the solution using a filtered syringe to a 20 mL headspace vial and crimped using an electric crimper.
GC×GC analysis was performed using the INSIGHT™ reverse fill flush flow modulator (SepSolve Analytical). This was coupled for data generation to an Agilent 7890B GC and BenchTOF Select Time of flight mass spectrometer (Markes International). Time-of-Flight Mass spectrometry (TOF-MS) was used to identify compounds. Quantification of compounds was done using a flame ionization detector (HD). Sample introduction was done using a Centri Sample Concentration Platform (Markes International). […]
Data was collected, integrated, and analyzed using the ChromSpace software platform (Sepsolve Analytical). Compounds were quantified from GC×GC—FID data with calibration curves using a 40-compound terpene standard (LGC Standards). […]
Three different samples of the plants shown in FIG. 4 were measured to obtain an average.
Three different samples of the plants shown were measured to for each group.

SMILES	THC and total cannabinoid concentration / cannabinoid production, in words [1]	volatile aroma compound production / aroma content, in words [2]
O=S(=O)([O-])[O-].[K+].[K+] [K2SO4, potassium sulfate]	negatively affects	negatively affects
COc1ccc2[nH]cc(CCNC(C)=O)c2c1 [melatonin]	increased cannabinoid production relative to the control group	
